The values below are quoted from earlier work in article PMC12394912 (RSC Chemical Biology, 2025).

`Cc1ncsc1-c1ccc(CNC(=O)[C@@H]2C[C@@H](O)CN2C(=O)[C@@H](NC(=O)COCCOCCOCCNC(=O)C[C@@H]2N=C(c3ccc(Cl)cc3)c3c(sc(C)c3C)-n3c(C)nnc32)C(C)(C)C)cc1` [MZ1]: the “PAMPA permeability, fold lower than E3 ligand VH032” value is reported as roughly 290 fold and the “PAMPA permeability, fold lower than POI ligand JQ1” value was “approximately 190 fold”.
